Laboratory results published in patent US11985974B2, “Antimicrobial ferulic acid derivatives and uses thereof” (WISCONSIN ALUMNI RESEARCH FOUNDATION, priority 2014, dated 2024).

System: yeast cells
Assay: Cell leakage assay (FungaLight, flow cytometry)
Assay type: cell-based, Saccharomyces cerevisiae
Settings: actively growing cells (YPD), 4 h
Protocol: A FungaLight Cell Viability Assay (L34952; Invitrogen) using a Guava Flow Cytometer (Millipore) was used to determine if poacic acid caused membrane damage. The population of stained cells (damaged integrity) vs. nonstained cells can be determined by flow cytometry. Caspofungin (50 ng/mL) was included as a positive control. MMS and DMSO were included as a noncell wall-targeting control and a solvent control, respectively. To test the effects of the compounds on both active and arrested cells, log-phase cultures were washed with 1×PBS and resuspended to an OD0.5 in either YPD medium or YP (no carbon source) in the presence of the drugs (n=3) for 4 h at 30° C. The cells were then stained and immediately read by flow cytometry. One-way ANOVA and Tukey's test were used to calculate the difference between drug treatments among cells with arrested growth.

Row | SMILES | cell leakage (propidium iodide uptake)
1 | COS(C)(=O)=O [MMS, methyl methanesulfonate] | did not
2 | CC[C@H](C)C[C@H](C)CCCCCCCCC(=O)N[C@H]1C[C@@H](O)[C@@H](NCCN)NC(=O)[C@@H]2[C@@H](O)CCN2C(=O)[C@H]([C@H](O)CCN)NC(=O)[C@H]([C@H](O)[C@@H](O)c2ccc(O)cc2)NC(=O)[C@@H]2C[C@@H](O)CN2C(=O)[C@H]([C@@H](C)O)NC1=O [caspofungin] | caused rapid cell leakage

Same assay, conditions: arrested cells without carbon source (YP), 4 h

Row | SMILES | cell leakage (propidium iodide uptake)
3 | CC[C@H](C)C[C@H](C)CCCCCCCCC(=O)N[C@H]1C[C@@H](O)[C@@H](NCCN)NC(=O)[C@@H]2[C@@H](O)CCN2C(=O)[C@H]([C@H](O)CCN)NC(=O)[C@H]([C@H](O)[C@@H](O)c2ccc(O)cc2)NC(=O)[C@@H]2C[C@@H](O)CN2C(=O)[C@H]([C@@H](C)O)NC1=O [caspofungin] | diminished

System: yeast
Assay: not given
Settings: against yeast, literature values; cited from earlier work

Row | SMILES | IC50 [µM]
4 | O=C1C2CC=CCC2C(=O)N1SC(Cl)(Cl)Cl (stereo not drawn) [captan] | 19
5 | O=S(=O)([O-])[O-].[Cu+2] [copper sulfate] | 2400
6 | CO/C=C(/C(=O)OC)c1ccccc1COc1cccc(C(F)(F)F)n1 [picoxystrobin] | 308
7 | NC(=O)OC[C@H](O)[C@@H](O)[C@H](N)C(=O)N[C@H](C(=O)O)[C@H]1O[C@@H](n2cc(C(=O)O)c(=O)[nH]c2=O)[C@H](O)[C@@H]1O [polyoxin D] | 340
8 | CCCN(CCOc1c(Cl)cc(Cl)cc1Cl)C(=O)n1ccnc1 [prochloraz] | 132
9 | c1ccc2[nH]c(-c3cscn3)nc2c1 [thiabendazole] | 607
